In PMC7382501 (Nature Communications, 2020):

Columns and labels:
Mtb FasR = conditions: ref Mondino et al Mol Microbiol 2013 89:372; cited from earlier work
FasRwt = FasRwt (Mycobacterium tuberculosis, UniProt O05858)
Chain of FasRwt (O05858 whole entry): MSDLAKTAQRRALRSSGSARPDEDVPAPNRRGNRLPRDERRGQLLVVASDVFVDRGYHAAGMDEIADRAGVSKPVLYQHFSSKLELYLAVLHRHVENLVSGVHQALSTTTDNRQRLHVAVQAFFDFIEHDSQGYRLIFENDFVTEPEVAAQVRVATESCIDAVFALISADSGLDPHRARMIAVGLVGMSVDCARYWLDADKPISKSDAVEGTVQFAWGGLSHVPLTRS

| SMILES | triggering of DNA-dissociation (Mtb FasR) | k, exponential decay rate of full-length FasR under trypsin proteolysis (FasRwt) |
| --- | --- | --- |
| CCCCCCCCCCCCCC(=O)O [C14, myristic acid] | ineffective at triggering DNA-dissociation |  |
| CCCCCCCCCCCCCCCCCCCC(=O)SCCNC(=O)CCNC(=O)[C@H](O)C(C)(C)COP(=O)(O)OP(=O)(O)OC[C@H]1O[C@@H](n2cnc3c(N)ncnc32)[C@H](O)[C@@H]1OP(=O)(O)O [C20-CoA, arachidoyl-CoA] |  | 0.11 |
